Legend:
Assay in all cases: relative viability (nuclei count vs DMSO), 5 days (fraction); higher = more cells survive
[1] = compound: C1/C(=C\C2=CC=CS2)/C(=O)/C(=C/C3=CC=CS3)/C1 + CCNC(=O)c1noc(-c2cc(C(C)C)c(O)cc2O)c1-c1ccc(CN2CCOCC2)cc1 [Luminespib] (partner 0.01 µM)
Procedure, shortened: (§1)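 Five library-drug doses in √10 steps were combined with a fixed anchor-drug dose, or a single drug was given alone, by pin tool to lung cancer cell lines in 1536-well plates the day after seeding. Nuclei were stained and counted after 5 days. Relative viability is the nuclei count in treated wells over that in vehicle wells, taken as the median of duplicate plates.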

[2] = compound: C1/C(=C\C2=CC=CS2)/C(=O)/C(=C/C3=CC=CS3)/C1 + CS(=O)(=O)CCNCc1ccc(-c2ccc3ncnc(Nc4ccc(OCc5cccc(F)c5)c(Cl)c4)c3c2)o1 [Lapatinib] (partner 2 µM)
Procedure, shortened: as §1

[3] = compound: C1/C(=C\C2=CC=CS2)/C(=O)/C(=C/C3=CC=CS3)/C1 + NC(=O)Nc1cc(-c2cccc(F)c2)sc1C(=O)N[C@H]1CCCNC1 [AZD7762] (partner 0.2 µM)
Procedure, shortened: as §1

[4] = compound: C[C@]12O[C@H](C[C@]1(O)CO)n1c3ccccc3c3c4c(c5c6ccccc6n2c5c31)CNC4=O [Lestaurtinib] + CS(=O)(=O)N1CCN(Cc2cc3nc(-c4cccc5[nH]ncc45)nc(N4CCOCC4)c3s2)CC1 [Pictilisib] (partner 1 µM)
Procedure, shortened: as §1

| Cell Line | relative viability ([1]; first compound 0.2 µM) | relative viability ([1]; first compound 0.6325 µM) | relative viability ([1]; first compound 2 µM) | relative viability ([1]; first compound 6.325 µM) | relative viability ([1]; first compound 20 µM) | relative viability ([2]; first compound 0.2 µM) | relative viability ([2]; first compound 0.6325 µM) | relative viability ([2]; first compound 2 µM) | relative viability ([2]; first compound 6.325 µM) | relative viability ([2]; first compound 20 µM) | relative viability ([3]; first compound 0.2 µM) | relative viability ([3]; first compound 0.6325 µM) | relative viability ([3]; first compound 2 µM) | relative viability ([3]; first compound 6.325 µM) | relative viability ([3]; first compound 20 µM) | relative viability ([4]; first compound 0.005 µM) | relative viability ([4]; first compound 0.01581 µM) | relative viability ([4]; first compound 0.05 µM) | relative viability ([4]; first compound 0.1581 µM) | relative viability ([4]; first compound 0.5 µM) |
| --- | --- | --- | --- | --- | --- | --- | --- | --- | --- | --- | --- | --- | --- | --- | --- | --- | --- | --- | --- | --- |
| NCI-H2405 | 0.818 | 0.773 | 0.743 | 0.673 | 0.675 | 1.12 | 1.07 | 1.33 | 0.887 | 1.14 | 0.958 | 0.757 | 0.867 | 0.716 | 0.715 | 0.417 | 0.404 | 0.356 | 0.345 | 0.202 |
| NCI-H2126 | 0.952 | 0.84 | 0.963 | 0.804 | 0.867 | 0.774 | 0.751 | 0.787 | 0.691 | 0.745 | 1.04 | 0.933 | 1.08 | 0.862 | 1 | 0.493 | 0.525 | 0.415 | 0.449 | 0.411 |
| NCI-H1944 | 0.762 | 0.731 | 0.674 | 0.695 | 0.626 | 0.735 | 0.695 | 0.864 | 0.782 | 0.748 | 0.502 | 0.461 | 0.526 | – | 0.442 | 0.352 | 0.313 | 0.313 | 0.305 | 0.248 |
| NCI-H358 | 0.324 | 0.453 | 0.337 | – | 0.341 | 0.435 | 0.482 | 0.475 | 0.459 | 0.424 | 0.643 | 0.53 | 0.593 | 0.444 | 0.572 | 0.346 | 0.28 | 0.28 | 0.221 | 0.181 |
| NCI-H1734 | 0.193 | 0.19 | 0.209 | 0.22 | 0.211 | 1.02 | 1.05 | 1.17 | 0.906 | 1.09 | 0.591 | 0.57 | 0.551 | 0.415 | 0.523 | 0.444 | 0.399 | 0.316 | 0.251 | 0.196 |
| A-427 | 1.01 | 0.905 | 0.939 | 0.876 | 0.977 | 1.09 | 1.01 | 1.01 | 1.02 | 0.982 | 0.78 | 0.836 | 0.822 | 0.724 | 0.72 | 0.769 | 0.668 | 0.461 | 0.239 | 0.101 |
| RERF-LC-KJ | 1.26 | 1.36 | 1.25 | 1.15 | 1.14 | 0.915 | 0.943 | 0.827 | 0.893 | 0.764 | 1.09 | 1.04 | 1.05 | 0.87 | 1.06 | 0.593 | 0.235 | 0.458 | 0.387 | 0.243 |
| NCI-H727 | 0.428 | 0.336 | 0.433 | 0.477 | 0.308 | 0.735 | 0.877 | 1.02 | 0.701 | 0.752 | 0.574 | 0.527 | 0.731 | – | 0.682 | 0.396 | 0.566 | 0.278 | 0.409 | 0.229 |

From the supplement of paper PMC10307832
